Test system: T1, phospholipase A (PLA, Lecitase Ultra)
T1 construct: gene LIP; one fused chain: T. lanuginosus lipase N-terminal part (1-284) + F. oxysporum phospholipase A1 C-terminal part (285-339); commercial Lecitase Ultra (Sigma-Aldrich), used without further purification; free form
Assay: p-nitrophenol release, absorbance […] nm, Michaelis-Menten nonlinear fit
Type: biochemical, Thermomyces lanuginosus
Settings: free enzyme; 0.1 to 1.2 mmol/L pNPB, 50 mmol/L phosphate pH 7.0, 0.004% Triton X-100, 30 °C

- Km: 490 ± 100 µM
SMILES: CCCC(=O)Oc1ccc([N+](=O)[O-])cc1 [p-nitrophenyl-butyrate]

From paper PMC8395317, “The Simple Method of Preparation of Highly Carboxylated Bacterial Cellulose with Ni- and Mg-Ferrite-Based Versatile Magnetic Carrier for Enzyme Immobilization” (International Journal of Molecular Sciences, 2021)
